{"source": "paper PMC8213057", "about": "“Targeting ALK2: An Open Science Approach to Developing Therapeutics for the Treatment of Diffuse Intrinsic Pontine Glioma” (Journal of Medicinal Chemistry, 2020)", "key": {"PKG2/PRKG2": {"target": "T1, PKG2/PRKG2 (Homo sapiens, UniProt Q13237)", "T1 sequence (Q13237 1-762)": "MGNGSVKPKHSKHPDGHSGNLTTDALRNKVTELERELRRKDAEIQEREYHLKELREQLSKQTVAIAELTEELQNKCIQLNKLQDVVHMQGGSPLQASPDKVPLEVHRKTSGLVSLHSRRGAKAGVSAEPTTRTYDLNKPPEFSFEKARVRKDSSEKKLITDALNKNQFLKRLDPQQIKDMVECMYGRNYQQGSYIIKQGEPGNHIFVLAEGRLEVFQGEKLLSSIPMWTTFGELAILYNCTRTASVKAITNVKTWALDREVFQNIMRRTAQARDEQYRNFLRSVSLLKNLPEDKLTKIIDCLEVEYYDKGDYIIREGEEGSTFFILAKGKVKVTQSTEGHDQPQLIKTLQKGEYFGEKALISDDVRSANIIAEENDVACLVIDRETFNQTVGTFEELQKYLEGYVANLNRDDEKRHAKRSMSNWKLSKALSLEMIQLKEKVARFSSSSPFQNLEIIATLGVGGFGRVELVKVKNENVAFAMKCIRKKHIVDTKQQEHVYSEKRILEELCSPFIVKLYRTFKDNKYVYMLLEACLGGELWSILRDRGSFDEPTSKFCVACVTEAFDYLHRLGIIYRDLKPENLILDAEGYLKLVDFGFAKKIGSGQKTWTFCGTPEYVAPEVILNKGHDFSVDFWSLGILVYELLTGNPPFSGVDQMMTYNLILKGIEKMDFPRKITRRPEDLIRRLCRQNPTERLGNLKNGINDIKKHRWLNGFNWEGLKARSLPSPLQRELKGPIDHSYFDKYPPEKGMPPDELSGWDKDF", "assay": "biochemical", "conditions": "read-out: % enzyme activity, 1 μM; Run 1, Run 2"}, "ROCK1": {"target": "ROCK1 (Homo sapiens, UniProt Q13464)", "sequence (Q13464 whole entry)": "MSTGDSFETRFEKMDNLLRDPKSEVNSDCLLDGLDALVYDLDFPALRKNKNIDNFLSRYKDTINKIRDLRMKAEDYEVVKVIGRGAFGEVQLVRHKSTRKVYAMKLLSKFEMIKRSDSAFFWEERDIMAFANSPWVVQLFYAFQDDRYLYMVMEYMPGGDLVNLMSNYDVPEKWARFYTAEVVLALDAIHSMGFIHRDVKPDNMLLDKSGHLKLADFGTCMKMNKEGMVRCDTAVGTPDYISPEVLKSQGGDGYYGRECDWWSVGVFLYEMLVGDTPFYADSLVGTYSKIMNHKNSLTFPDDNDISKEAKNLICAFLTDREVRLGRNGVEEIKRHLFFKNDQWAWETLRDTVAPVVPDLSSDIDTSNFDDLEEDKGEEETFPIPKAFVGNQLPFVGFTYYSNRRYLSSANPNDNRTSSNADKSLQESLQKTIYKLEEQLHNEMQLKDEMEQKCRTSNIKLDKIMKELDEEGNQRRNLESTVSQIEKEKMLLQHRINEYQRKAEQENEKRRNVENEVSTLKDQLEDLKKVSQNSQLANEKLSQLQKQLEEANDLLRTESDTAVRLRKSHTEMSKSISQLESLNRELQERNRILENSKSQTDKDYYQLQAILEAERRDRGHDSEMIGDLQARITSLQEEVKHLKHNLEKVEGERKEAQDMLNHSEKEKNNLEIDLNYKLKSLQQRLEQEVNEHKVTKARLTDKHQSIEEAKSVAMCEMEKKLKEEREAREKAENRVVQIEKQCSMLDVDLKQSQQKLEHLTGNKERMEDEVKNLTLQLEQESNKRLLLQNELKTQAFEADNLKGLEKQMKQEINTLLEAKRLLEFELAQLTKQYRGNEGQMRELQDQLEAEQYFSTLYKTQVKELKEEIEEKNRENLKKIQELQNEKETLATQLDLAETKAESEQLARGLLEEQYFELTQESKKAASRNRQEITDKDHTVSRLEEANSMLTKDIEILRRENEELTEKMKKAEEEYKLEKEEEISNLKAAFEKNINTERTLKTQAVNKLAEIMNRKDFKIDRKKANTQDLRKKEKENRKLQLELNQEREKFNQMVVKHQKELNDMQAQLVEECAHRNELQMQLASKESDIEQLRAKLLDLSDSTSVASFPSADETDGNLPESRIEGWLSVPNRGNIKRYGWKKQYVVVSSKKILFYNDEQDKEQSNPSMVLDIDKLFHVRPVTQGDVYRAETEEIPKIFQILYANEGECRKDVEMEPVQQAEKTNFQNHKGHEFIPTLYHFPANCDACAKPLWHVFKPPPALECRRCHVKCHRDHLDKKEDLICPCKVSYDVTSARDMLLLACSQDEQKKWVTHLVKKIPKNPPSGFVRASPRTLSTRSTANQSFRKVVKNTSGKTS", "conditions": "1 μM; Run 1, Run 2"}, "EPHA4": {"target": "EPHA4 (Homo sapiens, UniProt P54764)", "sequence (P54764 20-986)": "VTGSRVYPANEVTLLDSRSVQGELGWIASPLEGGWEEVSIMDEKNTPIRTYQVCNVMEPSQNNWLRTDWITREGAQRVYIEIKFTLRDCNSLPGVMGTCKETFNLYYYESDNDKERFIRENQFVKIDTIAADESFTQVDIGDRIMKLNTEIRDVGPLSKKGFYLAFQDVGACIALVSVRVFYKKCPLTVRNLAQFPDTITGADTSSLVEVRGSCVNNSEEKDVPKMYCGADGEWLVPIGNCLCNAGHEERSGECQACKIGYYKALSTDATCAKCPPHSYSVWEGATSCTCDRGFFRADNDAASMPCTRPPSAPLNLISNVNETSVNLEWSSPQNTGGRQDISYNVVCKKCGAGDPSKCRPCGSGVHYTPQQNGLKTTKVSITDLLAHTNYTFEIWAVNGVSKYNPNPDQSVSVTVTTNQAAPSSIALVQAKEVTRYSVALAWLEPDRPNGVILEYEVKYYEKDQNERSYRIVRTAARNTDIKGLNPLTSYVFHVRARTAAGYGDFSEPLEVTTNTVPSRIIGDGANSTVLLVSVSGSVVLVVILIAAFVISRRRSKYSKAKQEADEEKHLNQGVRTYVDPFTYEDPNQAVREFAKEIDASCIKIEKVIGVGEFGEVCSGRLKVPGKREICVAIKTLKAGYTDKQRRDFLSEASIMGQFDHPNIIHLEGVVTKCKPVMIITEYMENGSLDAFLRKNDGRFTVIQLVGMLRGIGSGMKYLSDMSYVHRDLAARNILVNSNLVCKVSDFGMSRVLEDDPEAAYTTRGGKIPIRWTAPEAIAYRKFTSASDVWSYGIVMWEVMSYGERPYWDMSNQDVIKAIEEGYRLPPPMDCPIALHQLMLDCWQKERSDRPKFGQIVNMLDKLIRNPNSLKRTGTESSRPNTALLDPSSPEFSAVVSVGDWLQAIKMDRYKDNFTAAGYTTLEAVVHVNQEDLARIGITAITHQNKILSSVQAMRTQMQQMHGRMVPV", "assay": "biochemical", "conditions": "read-out: % enzyme activity, 1 μM; Run 1, Run 2"}, "JNK2": {"target": "JNK2 (Homo sapiens, UniProt P45984)", "sequence (P45984 whole entry)": "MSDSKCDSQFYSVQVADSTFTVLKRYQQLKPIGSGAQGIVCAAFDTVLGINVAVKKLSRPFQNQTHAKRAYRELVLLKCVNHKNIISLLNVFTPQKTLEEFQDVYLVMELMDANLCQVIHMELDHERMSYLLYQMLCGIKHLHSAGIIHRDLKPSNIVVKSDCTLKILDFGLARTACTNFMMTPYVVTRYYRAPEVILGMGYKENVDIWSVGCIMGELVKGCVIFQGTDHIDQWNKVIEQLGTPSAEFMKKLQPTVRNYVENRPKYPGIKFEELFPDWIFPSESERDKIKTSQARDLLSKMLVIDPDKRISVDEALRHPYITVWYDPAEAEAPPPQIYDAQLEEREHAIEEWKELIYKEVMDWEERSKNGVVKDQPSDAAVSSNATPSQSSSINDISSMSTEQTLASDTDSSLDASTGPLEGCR", "assay": "biochemical", "conditions": "read-out: % enzyme activity, 1 μM; Run 1, Run 2"}, "BMX/ETK": {"target": "T2, BMX/ETK (Homo sapiens, UniProt P51813)", "T2 sequence (P51813 1-675)": "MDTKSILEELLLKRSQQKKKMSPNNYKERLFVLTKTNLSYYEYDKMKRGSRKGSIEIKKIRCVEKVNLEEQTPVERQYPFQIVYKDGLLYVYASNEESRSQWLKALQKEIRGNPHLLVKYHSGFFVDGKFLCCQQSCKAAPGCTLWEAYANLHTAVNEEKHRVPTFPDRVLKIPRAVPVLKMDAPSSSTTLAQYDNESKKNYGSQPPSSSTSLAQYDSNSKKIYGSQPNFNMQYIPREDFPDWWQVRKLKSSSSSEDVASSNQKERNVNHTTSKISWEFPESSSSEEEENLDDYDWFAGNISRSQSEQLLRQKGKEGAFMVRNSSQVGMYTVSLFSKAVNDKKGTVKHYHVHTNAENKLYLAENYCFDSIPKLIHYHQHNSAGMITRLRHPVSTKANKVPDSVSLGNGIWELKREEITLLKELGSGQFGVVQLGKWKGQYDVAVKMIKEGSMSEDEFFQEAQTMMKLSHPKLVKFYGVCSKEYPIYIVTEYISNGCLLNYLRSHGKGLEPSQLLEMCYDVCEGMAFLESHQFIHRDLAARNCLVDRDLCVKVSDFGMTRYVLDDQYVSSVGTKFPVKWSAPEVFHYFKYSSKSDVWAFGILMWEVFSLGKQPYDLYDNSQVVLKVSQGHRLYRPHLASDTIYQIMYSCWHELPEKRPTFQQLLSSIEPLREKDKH", "conditions": "1 μM; Run 1, Run 2"}, "TEC": {"target": "T3, TEC (Homo sapiens, UniProt P42680)", "T3 sequence (P42680 1-631)": "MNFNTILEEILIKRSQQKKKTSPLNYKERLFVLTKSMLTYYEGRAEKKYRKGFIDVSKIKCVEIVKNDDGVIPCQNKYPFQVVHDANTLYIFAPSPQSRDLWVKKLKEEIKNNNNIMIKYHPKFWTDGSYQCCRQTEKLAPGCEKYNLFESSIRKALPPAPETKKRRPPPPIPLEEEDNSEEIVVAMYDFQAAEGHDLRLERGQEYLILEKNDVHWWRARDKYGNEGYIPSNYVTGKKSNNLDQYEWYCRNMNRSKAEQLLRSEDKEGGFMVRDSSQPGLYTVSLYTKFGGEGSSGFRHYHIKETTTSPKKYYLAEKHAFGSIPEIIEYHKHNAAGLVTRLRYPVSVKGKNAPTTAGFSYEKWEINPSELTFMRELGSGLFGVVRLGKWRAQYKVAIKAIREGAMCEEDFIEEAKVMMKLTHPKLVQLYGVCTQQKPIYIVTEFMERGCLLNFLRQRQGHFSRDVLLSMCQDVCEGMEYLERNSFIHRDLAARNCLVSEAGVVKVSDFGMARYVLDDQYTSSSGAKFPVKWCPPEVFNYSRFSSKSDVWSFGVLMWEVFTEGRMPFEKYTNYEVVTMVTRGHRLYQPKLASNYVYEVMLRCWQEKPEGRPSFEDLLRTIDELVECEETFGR", "conditions": "1 μM; Run 1, Run 2"}, "JNK1": {"target": "JNK1 (Homo sapiens, UniProt P45983)", "sequence (P45983 whole entry)": "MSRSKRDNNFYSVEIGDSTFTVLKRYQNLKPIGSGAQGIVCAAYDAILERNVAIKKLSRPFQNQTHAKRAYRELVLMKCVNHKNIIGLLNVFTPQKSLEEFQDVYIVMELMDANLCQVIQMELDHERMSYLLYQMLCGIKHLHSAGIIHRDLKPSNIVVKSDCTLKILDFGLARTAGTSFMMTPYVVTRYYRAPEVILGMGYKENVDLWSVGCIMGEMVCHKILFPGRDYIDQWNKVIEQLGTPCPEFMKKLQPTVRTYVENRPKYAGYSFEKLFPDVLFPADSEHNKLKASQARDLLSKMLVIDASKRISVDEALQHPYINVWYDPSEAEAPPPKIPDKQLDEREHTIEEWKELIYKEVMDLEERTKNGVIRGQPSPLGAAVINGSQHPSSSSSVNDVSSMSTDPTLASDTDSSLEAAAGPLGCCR", "conditions": "1 μM; Run 1, Run 2"}, "GRK6": {"target": "GRK6 (Homo sapiens, UniProt P43250)", "sequence (P43250 whole entry)": "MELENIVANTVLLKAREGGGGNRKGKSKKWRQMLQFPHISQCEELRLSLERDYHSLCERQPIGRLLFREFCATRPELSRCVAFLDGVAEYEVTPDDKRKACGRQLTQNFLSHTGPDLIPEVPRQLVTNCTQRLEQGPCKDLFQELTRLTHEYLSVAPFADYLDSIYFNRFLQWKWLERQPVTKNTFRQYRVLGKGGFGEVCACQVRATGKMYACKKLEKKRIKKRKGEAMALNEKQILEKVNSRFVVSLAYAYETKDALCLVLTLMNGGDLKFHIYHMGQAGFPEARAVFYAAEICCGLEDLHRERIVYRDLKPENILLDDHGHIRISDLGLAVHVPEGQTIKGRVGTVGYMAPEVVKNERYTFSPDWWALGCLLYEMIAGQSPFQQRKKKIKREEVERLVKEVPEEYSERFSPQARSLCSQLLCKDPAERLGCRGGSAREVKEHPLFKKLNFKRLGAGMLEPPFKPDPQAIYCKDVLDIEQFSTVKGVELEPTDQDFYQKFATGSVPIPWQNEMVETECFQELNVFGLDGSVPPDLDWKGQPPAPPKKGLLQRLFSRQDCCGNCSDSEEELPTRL", "assay": "biochemical", "conditions": "read-out: % enzyme activity, 1 μM; Run 1, Run 2"}, "TESK2": {"target": "TESK2 (Homo sapiens, UniProt Q96S53)", "sequence (Q96S53 whole entry)": "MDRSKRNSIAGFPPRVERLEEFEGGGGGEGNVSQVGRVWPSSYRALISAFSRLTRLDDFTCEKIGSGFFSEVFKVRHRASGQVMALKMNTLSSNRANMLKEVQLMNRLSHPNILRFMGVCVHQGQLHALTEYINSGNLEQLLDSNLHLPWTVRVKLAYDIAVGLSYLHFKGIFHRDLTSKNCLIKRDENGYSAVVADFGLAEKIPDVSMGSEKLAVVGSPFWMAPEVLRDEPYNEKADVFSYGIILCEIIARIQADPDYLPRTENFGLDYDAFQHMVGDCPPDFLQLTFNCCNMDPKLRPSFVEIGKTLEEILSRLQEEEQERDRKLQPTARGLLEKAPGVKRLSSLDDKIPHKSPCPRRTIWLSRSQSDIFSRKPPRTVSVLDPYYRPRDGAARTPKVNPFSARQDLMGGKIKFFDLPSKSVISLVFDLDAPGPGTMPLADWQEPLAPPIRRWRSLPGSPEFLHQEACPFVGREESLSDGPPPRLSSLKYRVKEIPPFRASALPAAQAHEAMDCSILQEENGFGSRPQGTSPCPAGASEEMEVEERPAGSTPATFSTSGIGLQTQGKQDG", "conditions": "1 μM; Run 1, Run 2"}}}
{"smiles": "COc1cc(-c2cncc(-c3ccc(N4CCN(C)CC4)cc3)c2C)cc(F)c1C(N)=O", "note": "[Compound 26a, 2-Fluoro-6-methoxy-4-(4-methyl-5-(4-(4-methylpiperazin-1-yl)phenyl)pyridin-3-yl)benzamide]", "values": [{"measurement": "remaining activity at 1 µM", "setting": "PKG2/PRKG2", "value": 98.9, "unit": "%"}, {"measurement": "% enzyme activity", "setting": "ROCK1", "value": 91.98, "unit": "%"}, {"measurement": "remaining activity at 1 µM", "setting": "EPHA4", "value": 95.3, "unit": "%"}, {"measurement": "remaining activity at 1 µM", "setting": "JNK2", "value": 93.4, "unit": "%"}, {"measurement": "% enzyme activity", "setting": "BMX/ETK", "value": 102.04, "unit": "%"}, {"measurement": "% enzyme activity", "setting": "TEC", "value": 107.42, "unit": "%"}, {"measurement": "% enzyme activity", "setting": "JNK1", "value": 88.65, "unit": "%"}, {"measurement": "remaining activity at 1 µM", "setting": "GRK6", "value": 109, "unit": "%"}, {"measurement": "% enzyme activity", "setting": "TESK2", "value": 93.89, "unit": "%"}]}
{"smiles": "COc1cc(-c2cncc(-c3ccc(N4C[C@@H](C)N(C)[C@@H](C)C4)cc3)c2C)cc(F)c1C(N)=O", "note": "[Compound 26c, 2-Fluoro-6-methoxy-4-(4-methyl-5-(4-((3R,5S)-3,4,5-trimethylpiperazin-1-yl)phenyl)pyridin-3-yl)benzamide]", "values": [{"measurement": "remaining activity at 1 µM", "setting": "PKG2/PRKG2", "value": 98.5, "unit": "%"}, {"measurement": "% enzyme activity", "setting": "ROCK1", "value": 92.61, "unit": "%"}, {"measurement": "remaining activity at 1 µM", "setting": "EPHA4", "value": 99.3, "unit": "%"}, {"measurement": "remaining activity at 1 µM", "setting": "JNK2", "value": 94.7, "unit": "%"}, {"measurement": "% enzyme activity", "setting": "BMX/ETK", "value": 100.72, "unit": "%"}, {"measurement": "% enzyme activity", "setting": "TEC", "value": 106.19, "unit": "%"}, {"measurement": "% enzyme activity", "setting": "JNK1", "value": 85.74, "unit": "%"}, {"measurement": "remaining activity at 1 µM", "setting": "GRK6", "value": 97.1, "unit": "%"}, {"measurement": "% enzyme activity", "setting": "TESK2", "value": 92.03, "unit": "%"}]}
